Where a SMILES comes first, the peptide text is derived from it.
Experiments:
HLA A*3201 = HLA A*3201 (Homo sapiens, UniProt P04439, A270S/D101S/D185E/E176V/E277Q/F133L/G103R/G107R/G231S/H175R/I121M/I218V/I322F/K168Q/L105A/L300P/L318F/M331R/P208A/P217A/Q94H/R106L/R138Q/S129P/T104I/T323A/T345S/V100E/V321M/V358M); assay: biochemical; format: binding
HLA B*1503 = HLA B*1503 (Homo sapiens, UniProt P01889, A329T/A93T/A95T/C349S/D201E/D98Y/E187L/E204Q/K202T/N87E/Q94N/R155S/R180L/S121R/S35A/V306I/V36M/Y140S/Y91S); assay: biochemical; format: binding

Row | Compound | IC50 (HLA A*3201) | IC50 (HLA B*1503)
1 | CC[C@H](C)[C@H](NC(=O)[C@@H]1CCCN1C(=O)[C@H](Cc1c[nH]cn1)NC(=O)[C@H](CC(N)=O)NC(=O)[C@@H](NC(=O)[C@H](CC(=O)O)NC(=O)[C@H](CCSC)NC(=O)[C@@H](NC(=O)[C@@H](N)CO)[C@@H](C)O)C(C)C)C(=O)O [3102.0467] (H-STMDVNHPI-OH) | 7.4 nM | 
2 | CC(C)C[C@H](NC(=O)[C@H](CO)NC(=O)[C@H](CC(C)C)NC(=O)[C@@H](NC(=O)[C@H](CC(C)C)NC(=O)[C@H](Cc1c[nH]cn1)NC(=O)[C@H](CC(N)=O)NC(=O)[C@H](CC(C)C)NC(=O)[C@H](C)N)C(C)C)C(=O)O [3102.0469] (H-ALNHLVLSL-OH) | 41 nM | 
3 | CC[C@H](C)[C@H](NC(=O)[C@H](CCC(=O)O)NC(=O)[C@@H](NC(=O)[C@@H](NC(=O)[C@H](CCC(=O)O)NC(=O)[C@H](CC(N)=O)NC(=O)[C@@H](NC(=O)[C@@H](N)CCCCN)[C@@H](C)CC)C(C)C)C(C)C)C(=O)N[C@@H](Cc1ccccc1)C(=O)O [3102.0471] (H-KINEVVEIF-OH) | 19 nM | 
4 | CC[C@H](C)[C@H](NC(=O)[C@@H](NC(=O)[C@@H](N)CCCCN)[C@@H](C)O)C(=O)N[C@@H](CC(N)=O)C(=O)N[C@@H](Cc1ccc(O)cc1)C(=O)N[C@@H](CO)C(=O)N[C@@H](Cc1ccccc1)C(=O)N[C@@H](Cc1ccccc1)C(=O)N[C@@H](CC(C)C)C(=O)O [3102.0472] (H-KTINYSFFL-OH) | 1 nM | 
5 | CC[C@H](C)[C@H](NC(=O)[C@H](CO)NC(=O)[C@H](CC(C)C)NC(=O)[C@@H](NC(=O)[C@H](CO)NC(=O)[C@H](C)NC(=O)[C@H](CC(C)C)NC(=O)[C@@H](NC(=O)[C@@H](N)CCC(N)=O)[C@@H](C)CC)[C@@H](C)CC)C(=O)O [3102.0474] (H-QILASILSI-OH) | 22 nM | 
6 | CC[C@H](C)[C@H](NC(=O)CNC(=O)[C@H](CC(C)C)NC(=O)[C@@H](NC(=O)[C@H](CC(C)C)NC(=O)[C@H](Cc1ccc(O)cc1)NC(=O)[C@H](CCSC)NC(=O)[C@@H](NC(=O)[C@@H](N)CCSC)[C@@H](C)CC)C(C)C)C(=O)O [3102.0477] (H-MIMYLVLGI-OH) | 98 nM | 
7 | CC[C@H](C)[C@H](NC(=O)[C@@H](N)CCCCN)C(=O)N[C@@H](CC(N)=O)C(=O)N[C@@H](CCSC)C(=O)N[C@@H](CCC(N)=O)C(=O)N[C@H](C(=O)N[C@@H](CC(C)C)C(=O)N[C@@H](CC(C)C)C(=O)N[C@@H](Cc1ccccc1)C(=O)O)[C@@H](C)O [3102.0488] (H-KINMQTLLF-OH) | 10 nM | 
8 | CC[C@H](C)[C@H](NC(=O)[C@H](CC(N)=O)NC(=O)[C@H](Cc1ccccc1)NC(=O)[C@@H](NC(=O)[C@H](CCCCN)NC(=O)[C@H](Cc1ccccc1)NC(=O)[C@H](CC(N)=O)NC(=O)[C@@H](NC(=O)[C@H](C)N)[C@@H](C)CC)[C@@H](C)CC)C(=O)O [3102.0489] (H-AINFKIFNI-OH) | 22 nM | 
9 | CC[C@H](C)[C@H](NC(=O)[C@@H](NC(=O)[C@@H](N)CCCCN)[C@@H](C)O)C(=O)N[C@@H](Cc1ccc(O)cc1)C(=O)N[C@@H](CC(C)C)C(=O)N[C@@H](CC(C)C)C(=O)N[C@@H](CO)C(=O)N[C@@H](CC(C)C)C(=O)N[C@@H](Cc1ccccc1)C(=O)O [3102.0490] (H-KTIYLLSLF-OH) | 10 nM | 
10 | CC[C@H](C)[C@H](NC(=O)[C@H](CC(C)C)NC(=O)[C@H](CC(C)C)NC(=O)[C@H](Cc1ccccc1)NC(=O)[C@H](Cc1c[nH]cn1)NC(=O)[C@H](C)NC(=O)[C@H](CO)NC(=O)[C@@H](N)CCCCN)C(=O)N[C@@H](Cc1ccccc1)C(=O)O [3102.0491] (H-KSAHFLLIF-OH) | 0.19 nM | 
11 | CC[C@H](C)[C@H](NC(=O)[C@H](CO)NC(=O)[C@@H](NC(=O)CNC(=O)[C@H](Cc1ccccc1)NC(=O)[C@H](CO)NC(=O)[C@H](CC(N)=O)NC(=O)[C@H](CC(C)C)NC(=O)[C@@H](N)CCCCN)C(C)C)C(=O)O [3102.0496] (H-KLNSFGVSI-OH) | 0.55 nM | 
12 | CC[C@H](C)[C@H](NC(=O)[C@H](CCSC)NC(=O)[C@@H](NC(=O)[C@H](CO)NC(=O)[C@H](CO)NC(=O)[C@H](Cc1ccc(O)cc1)NC(=O)[C@H](CO)NC(=O)[C@H](CCSC)NC(=O)[C@@H](N)CCCCN)C(C)C)C(=O)O [3102.0497] (H-KMSYSSVMI-OH) | 14 nM | 
13 | CSCC[C@H](NC(=O)[C@@H](N)Cc1c[nH]cn1)C(=O)N[C@@H](CC(C)C)C(=O)N[C@@H](CCC(=O)O)C(=O)N[C@@H](Cc1ccccc1)C(=O)N[C@@H](CC(C)C)C(=O)N[C@@H](Cc1ccc(O)cc1)C(=O)N[C@@H](CO)C(=O)N[C@@H](Cc1ccccc1)C(=O)O [3102.0499] (H-HMLEFLYSF-OH) | 0.3 nM | 
14 | CC[C@H](C)[C@H](NC(=O)[C@@H](NC(=O)[C@H](Cc1ccc(O)cc1)NC(=O)[C@H](CC(C)C)NC(=O)[C@@H](N)CCCCN)[C@@H](C)O)C(=O)N[C@H](C(=O)N[C@@H](CO)C(=O)N[C@H](C(=O)N[C@@H](CC(C)C)C(=O)O)[C@@H](C)O)C(C)C [3102.0508] (H-KLYTIVSTL-OH) | 7.1 nM | 
15 | CC[C@H](C)[C@H](NC(=O)[C@H](C)NC(=O)[C@H](CCC(N)=O)NC(=O)[C@H](Cc1ccccc1)NC(=O)[C@H](C)NC(=O)[C@H](Cc1ccccc1)NC(=O)[C@H](CO)NC(=O)[C@@H](NC(=O)[C@@H](N)CCCNC(=N)N)[C@@H](C)O)C(=O)O [3102.0512] (H-RTSFAFQAI-OH) | 3.8 nM | 
16 | CC(C)C[C@H](N)C(=O)N[C@H](C(=O)NCC(=O)N[C@H](C(=O)N[C@@H](Cc1ccccc1)C(=O)N[C@H](C(=O)N[C@H](C(=O)N[C@@H](C)C(=O)N[C@@H](Cc1ccccc1)C(=O)O)[C@@H](C)O)C(C)C)[C@@H](C)O)[C@@H](C)O [3102.0515] (H-LTGTFVTAF-OH) | 8.8 nM | 
17 | CSCC[C@H](NC(=O)[C@@H](N)C(C)C)C(=O)N[C@@H](Cc1ccc(O)cc1)C(=O)N[C@@H](C)C(=O)N[C@@H](Cc1ccccc1)C(=O)N[C@H](C(=O)N[C@H](C(=O)N1CCC[C@H]1C(=O)N[C@@H](CC(C)C)C(=O)O)[C@@H](C)O)[C@@H](C)O [3102.0516] (H-VMYAFTTPL-OH) | 0.29 nM | 
18 | CC[C@H](C)[C@H](NC(=O)[C@H](CC(N)=O)NC(=O)[C@H](CCSC)NC(=O)[C@@H](NC(=O)[C@@H](N)CCSC)[C@@H](C)O)C(=O)N[C@H](C(=O)N[C@@H](CC(N)=O)C(=O)N[C@@H](Cc1ccccc1)C(=O)N[C@@H](Cc1ccccc1)C(=O)O)C(C)C [3102.0518] (H-MTMNIVNFF-OH) | 1.9 nM | 
19 | CC(C)[C@H](NC(=O)[C@H](Cc1ccc(O)cc1)NC(=O)[C@@H](NC(=O)[C@@H](N)CCCNC(=N)N)C(C)C)C(=O)NCC(=O)N[C@@H](CC(N)=O)C(=O)N[C@H](C(=O)N[C@@H](C)C(=O)N[C@@H](Cc1c[nH]c2ccccc12)C(=O)O)C(C)C [3102.0520] (H-RVYVGNVAW-OH) | 1.1 nM | 
20 | CC[C@H](C)[C@H](NC(=O)[C@H](CCCCN)NC(=O)[C@H](CC(C)C)NC(=O)[C@@H](NC(=O)[C@H](Cc1ccc(O)cc1)NC(=O)[C@H](CC(N)=O)NC(=O)[C@H](CC(N)=O)NC(=O)[C@H](CC(C)C)NC(=O)[C@@H](N)CC(C)C)[C@@H](C)O)C(=O)O [3102.0521] (H-LLNNYTLKI-OH) | 25 nM | 
21 | CC[C@H](C)[C@H](NC(=O)[C@H](CCCCN)NC(=O)[C@H](Cc1ccc(O)cc1)NC(=O)[C@H](Cc1ccccc1)NC(=O)[C@H](CCSC)NC(=O)[C@H](Cc1ccc(O)cc1)NC(=O)[C@H](CCC(N)=O)NC(=O)[C@@H](N)CCCNC(=N)N)C(=O)N[C@@H](Cc1ccccc1)C(=O)O [3102.1055] (H-RQYMFYKIF-OH) | 19 nM | 0.07 nM
22 | CC[C@H](C)[C@H](NC(=O)[C@H](C)NC(=O)[C@H](Cc1ccccc1)NC(=O)[C@H](CCC(N)=O)NC(=O)[C@@H](N)Cc1c[nH]c2ccccc12)C(=O)N[C@@H](Cc1c[nH]cn1)C(=O)N[C@@H](Cc1ccc(O)cc1)C(=O)N[C@@H](CO)C(=O)N[C@@H](Cc1ccccc1)C(=O)O [3102.1096] (H-WQFAIHYSF-OH) | 2.8 nM | 4.5 nM
23 | CC[C@H](C)[C@H](N)C(=O)N[C@@H](CC(C)C)C(=O)N[C@@H](Cc1ccccc1)C(=O)N[C@@H](Cc1ccc(O)cc1)C(=O)N[C@@H](Cc1ccccc1)C(=O)N[C@@H](C)C(=O)N[C@@H](CC(N)=O)C(=O)NCC(=O)N[C@H](C(=O)O)[C@@H](C)CC [3102.1147] (H-ILFYFANGI-OH) | 93 nM | 
24 | CC[C@H](C)[C@H](N)C(=O)N[C@@H](CCSC)C(=O)N[C@@H](Cc1ccccc1)C(=O)N[C@@H](C)C(=O)N[C@@H](CCCCN)C(=O)N[C@H](C(=O)N[C@@H](CC(C)C)C(=O)N[C@@H](CC(=O)O)C(=O)N[C@@H](Cc1ccccc1)C(=O)O)[C@@H](C)O [3102.1190] (H-IMFAKTLDF-OH) | 6.8 nM | 0.31 nM
25 | CC[C@H](C)[C@H](NC(=O)[C@H](Cc1ccc(O)cc1)NC(=O)[C@H](Cc1c[nH]c2ccccc12)NC(=O)[C@H](CCSC)NC(=O)[C@@H](N)CO)C(=O)N1CCC[C@H]1C(=O)N[C@@H](CC(N)=O)C(=O)N[C@H](C(=O)N[C@@H](Cc1ccccc1)C(=O)O)C(C)C [3102.1192] (H-SMWYIPNVF-OH) | 5.1 nM | 0.72 nM
26 | CC[C@H](C)[C@H](N)C(=O)N[C@@H](CCSC)C(=O)N[C@@H](Cc1ccccc1)C(=O)N[C@@H](CO)C(=O)N[C@@H](CCCCN)C(=O)N[C@@H](CO)C(=O)N[C@@H](CC(C)C)C(=O)N[C@@H](CC(N)=O)C(=O)N[C@@H](Cc1ccccc1)C(=O)O [3102.1204] (H-IMFSKSLNF-OH) | 15 nM | 0.23 nM
27 | CC(C)C[C@H](NC(=O)[C@@H](NC(=O)[C@H](CC(N)=O)NC(=O)[C@H](C)NC(=O)[C@H](CC(N)=O)NC(=O)[C@H](Cc1ccc(O)cc1)NC(=O)[C@H](Cc1ccccc1)NC(=O)[C@H](CCC(N)=O)NC(=O)[C@@H](N)CCCNC(=N)N)C(C)C)C(=O)O [3102.1205] (H-RQFYNANVL-OH) | 37 nM | 0.24 nM
